This passage reports Ki results from publication PMC9394284, “Discovery of Novel Dual Adenosine A2A and A1 Receptor Antagonists with 1H-Pyrazolo[3,4-d]pyrimidin-6-amine Core Scaffold as Anti-Parkinson’s Disease Agents” (Pharmaceuticals, 2022).

What is called Ki is the dissociation constant of the complex between target and ligand, obtained from inhibition or displacement.

The structures appear in SMILES notation.

For test [1], the target named is T1, hA1 receptor (Homo sapiens, UniProt P30542).
T1 sequence (P30542 1-326): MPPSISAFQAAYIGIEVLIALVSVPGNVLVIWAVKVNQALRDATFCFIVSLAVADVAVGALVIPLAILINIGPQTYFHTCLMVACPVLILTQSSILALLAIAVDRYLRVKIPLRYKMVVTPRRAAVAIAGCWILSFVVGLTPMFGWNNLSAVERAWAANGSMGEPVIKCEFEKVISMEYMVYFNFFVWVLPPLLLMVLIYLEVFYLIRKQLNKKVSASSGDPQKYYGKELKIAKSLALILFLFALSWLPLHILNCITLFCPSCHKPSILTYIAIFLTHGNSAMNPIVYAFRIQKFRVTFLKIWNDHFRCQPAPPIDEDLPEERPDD
As to the kind of experiment: radioligand binding to human A1 receptors, CHO-K1 membranes, [3H]DPCPX. The settings on record: average of duplicate experiments. The protocol: The radioligand-binding assays for adenosine receptors were performed at Eurofins Discovery Services (Panlabs, Taiwan). Briefly, stock solutions of the compounds were prepared in DMSO and further diluted with the incubation buffer to the desired concentration. Final DMSO concentrations in the assay were 1.0%. For adenosine A1 screening, a 10 μg aliquots of membrane preparations from human recombinant CHO-K1 cells stably expressing A1 receptors (CHO-K1-hA1AR clone3, EPDST, R200510) were incubated with 1 nM [^3H]DPCPX in incubation buffer (20 mM HEPES, pH 7.4, 10 mM MgCl2, 100 mM NaCl 1.40 nM) for 90 min at 25 °C. Nonspecific binding was estimated in the presence of 100 μM R(-)-PIA. Membranes were filtered and washed 3 times and the filters were counted to determine specifically bound [^3H]DPCPX. Chemical compounds were screened at 10 μM. For A2A screening, membrane preparations from human recombinant HEK-293 cells stably expressing A2A receptors (PerkinElmer, RBHA2AM) were incubated with 0.05 μM [^3H]CGS-21680 in incubation buffer (50 mM Tris-HCl, pH 7.4, 10 mM MgCl2, 1 mM EDTA, 2 U/mL Adenosine Deaminase) for 90 min at 25 °C. Nonspecific binding was estimated in the presence of 50.0 μM NECA. Membranes were filtered and washed 3 times and the filters were counted to determine [^3H]CGS-21680 specifically bound. For A2B screening, membrane preparations from human recombinant HEK-293 cells stably expressing A2B receptors (PerkinElmer, ES-013-M) were incubated with 1.6 nM [^3H]MRS1754 in incubation buffer (50 mM Tris-HCl, pH 6.5, 5 mM MgCl2, 1 mM EDTA, 0.01 % Bacitracin) for 90 min at 25 °C. Nonspecific binding was estimated in the presence of 100 μM NECA. Membranes were filtered and washed 3 times and the filters were counted to determine [^3H]MRS1754 specifically bound. For A3 screening, membrane preparations from human recombinant CHO-K1 cells stably expressing A3 receptors (PerkinElmer, ES-012-M) were incubated with 0.5 nM [^125I]AB-MECA in incubation buffer (25 mM HEPES, pH 7.4, 5 mM MgCl2, 1 mM CaCl2, 0.1 % BSA) for 60 min at 25 °C. Nonspecific binding was estimated in the presence of 1.0 μM IB-MECA.
IC50 values were determined by a nonlinear, least-squares regression analysis using MathIQ^TM (ID Business Solutions Ltd., Guildford, UK). Where inhibition constants (Ki) were presented, the Ki values were calculated using Cheng and Prusoff equation [18] using the observed IC50 of the compound, the concentration of radioligand employed in the assay, and the historical values for the KD of the ligand (obtained experimentally at Eurofins Panlabs, Inc.). The Hill coefficient (nH), which defines the slope of the competitive binding curve, was calculated using MathIQ^TM.

The target in test [2] is T2, hA2A receptors (Homo sapiens, UniProt P29274).
T2 construct: purchased PerkinElmer RBHA2AM
As to the kind of experiment: radioligand binding to human A2A receptors, HEK-293 membranes. The settings on record: average of duplicate experiments. The protocol:
The binding affinities of synthesized compounds to human A2A receptors (hA2AR) were measured by assessing competitive binding of ligands to radioligand […] using membrane preparations of human recombinant HEK-293 cells expressing human A2A receptors.
The radioligand-binding assays for adenosine receptors were performed at Eurofins Discovery Services (Panlabs, Taiwan). Briefly, stock solutions of the compounds were prepared in DMSO and further diluted with the incubation buffer to the desired concentration. Final DMSO concentrations in the assay were 1.0%. […] Nonspecific binding was estimated in the presence of 100 μM R(-)-PIA. Membranes were filtered and washed 3 times and the filters were counted to determine specifically bound [^3H]DPCPX. Chemical compounds were screened at 10 μM. […] Nonspecific binding was estimated in the presence of 50.0 μM NECA. […] Nonspecific binding was estimated in the presence of 100 μM NECA. Membranes were filtered and washed 3 times and the filters were counted to determine [^3H]MRS1754 specifically bound. […] Nonspecific binding was estimated in the presence of 1.0 μM IB-MECA.
IC50 values were determined by a nonlinear, least-squares regression analysis using MathIQ^TM (ID Business Solutions Ltd., Guildford, UK). […] The Hill coefficient (nH), which defines the slope of the competitive binding curve, was calculated using MathIQ^TM.

T2 sequence (P29274 whole entry): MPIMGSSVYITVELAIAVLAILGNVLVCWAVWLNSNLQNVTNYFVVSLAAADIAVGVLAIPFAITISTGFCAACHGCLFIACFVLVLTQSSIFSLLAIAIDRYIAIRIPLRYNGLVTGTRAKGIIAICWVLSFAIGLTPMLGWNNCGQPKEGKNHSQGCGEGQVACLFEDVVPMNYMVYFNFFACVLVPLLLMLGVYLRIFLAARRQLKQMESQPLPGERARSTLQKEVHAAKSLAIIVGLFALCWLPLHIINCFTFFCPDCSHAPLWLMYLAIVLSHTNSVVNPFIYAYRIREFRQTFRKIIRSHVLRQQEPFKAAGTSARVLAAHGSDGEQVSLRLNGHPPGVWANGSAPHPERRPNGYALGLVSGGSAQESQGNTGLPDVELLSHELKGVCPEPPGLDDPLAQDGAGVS

Take `Cc1cc(Cn2ncc3c(-c4cccc(C#N)c4)nc(N)nc32)ccc1N` [compound 8, 3-(6-Amino-1-(4-amino-3-methylbenzyl)-1H-pyrazolo[3,4-d]pyrimidin-4-yl)benzonitrile]: the Ki in test [1] was 110 nM; in test [2], 11.1 nM.

Turning to `N#Cc1cccc(-c2nc(N)nc3c2cnn3Cc2c(F)cc(N)cc2F)c1` [11t, 3-[6-Amino-1-[(4-amino-2,6-difluoro-phenyl)methyl]pyrazolo[3,4-d]pyrimidin-4-yl]benzonitrile], the inhibition constant (Ki) came out at 50 nM in test [1] and 7.42 nM in test [2].

With `N#Cc1cncc(-c2nc(N)nc3c2cnn3Cc2c(F)cc(N)cc2F)c1` [11r, 5-[6-Amino-1-[(4-amino-2,6-difluoro-phenyl)methyl]pyrazolo[3,4-d]pyrimidin-4-yl]pyridine-3-carbonitrile], the Ki in test [1] was determined as 10000 nM; in test [2], 1220 nM.

`N#Cc1cncc(-c2nc(N)nc3c2cnn3Cc2ccc(N)cc2F)c1` [11g, 5-(6-Amino-1-(4-amino-2-fluorobenzyl)-1H-pyrazolo[3,4-d]pyrimidin-4-yl)nicotinonitrile]: the Ki in test [1] worked out at 32800 nM; in test [2], 2640 nM.

As for `N#Cc1cccc(-c2nc(N)nc3c2cnn3Cc2c(F)cc(N)cc2F)n1` [11q, 6-[6-Amino-1-[(4-amino-2,6-difluoro-phenyl)methyl]pyrazolo[3,4-d]pyrimidin-4-yl]pyridine-2-carbonitrile], the Ki in test [1] was found to be 150 nM; in test [2], 6.84 nM.

In turn, `N#Cc1cc(-c2nc(N)nc3c2cnn3Cc2c(F)cc(N)cc2F)ccn1` [11s, 4-[6-Amino-1-[(4-amino-2,6-difluoro-phenyl)methyl]pyrazolo[3,4-d]pyrimidin-4-yl]pyridine-2-carbonitrile] showed a Ki in test [2] of 4920 nM.

For `N#Cc1ccnc(-c2nc(N)nc3c2cnn3Cc2c(F)cc(N)cc2F)c1` [11p, 2-[6-Amino-1-[(4-amino-2,6-difluoro-phenyl)methyl]pyrazolo[3,4-d]pyrimidin-4-yl]pyridine-4-carbonitrile], the results for the Ki in test [1] and in test [2] were 380 nM and 47 nM, respectively.

On to `Cc1cc(Cn2ncc3c(-c4cccc(C#N)n4)nc(N)nc32)ccc1N` [11l, 6-(6-Amino-1-(4-amino-3-methylbenzyl)-1H-pyrazolo[3,4-d]pyrimidin-4-yl)picolinonitrile], for which the Ki in test [1] turned out to be 180 nM; in test [2], 6.39 nM.

For the compound `N#Cc1cncc(-c2nc(N)nc3c2cnn3Cc2ccc(N)cc2)c1` [11c, 5-(6-Amino-1-(4-aminobenzyl)-1H-pyrazolo[3,4-d]pyrimidin-4-yl)nicotinonitrile], the Ki is 32000 nM in test [1] and 4790 nM in test [2].

`N#Cc1cccc(-c2nc(N)nc3c2cnn3Cc2c(F)cc(N)cc2F)c1F` [11u, 3-(6-Amino-1-(4-amino-2,6-difluorobenzyl)-1H-pyrazolo[3,4-d]pyrimidin-4-yl)-2-fluorobenzonitrile]: the Ki was determined as 30 nM in test [1] and 6.45 nM in test [2].

In test [2], `N#Cc1cccc(-c2nc(N)nc3c2cnn3Cc2ccc(N)cc2)c1` [4a, 3-(6-Amino-1-(4-aminobenzyl)-1H-pyrazolo[3,4-d]pyrimidin-4-yl)benzonitrile] displayed a Ki of 16.4 nM.

Turning to `N#Cc1cccc(-c2nc(N)nc3c2cnn3Cc2ccc(N)cc2F)n1` [11f, 6-[6-Amino-1-[(4-amino-2-fluoro-phenyl)methyl]pyrazolo[3,4-d]pyrimidin-4-yl]pyridine-2-carbonitrile], the figures for the Ki in test [1] and in test [2] were 160 nM and 10.6 nM, respectively.

For the compound `N#Cc1cc(-c2nc(N)nc3c2cnn3Cc2ccc(N)cc2)ccn1` [11d, 4-(6-Amino-1-(4-aminobenzyl)-1H-pyrazolo[3,4-d]pyrimidin-4-yl)picolinonitrile], the values for the Ki in test [1] and in test [2] were 8530 nM and 4720 nM, respectively.

For `N#Cc1cccc(-c2nc(N)nc3c2cnn3Cc2ccc(N)cc2F)c1F` [11j, 3-(6-Amino-1-(4-amino-2-fluorobenzyl)-1H-pyrazolo[3,4-d]pyrimidin-4-yl)-2-fluorobenzonitrile], the Ki in test [1] came to 63 nM; in test [2], 16.4 nM.

Consider `CCn1c(=O)c2c(nc(/C=C/c3ccc(OC)c(OC)c3)n2C)n(CC)c1=O` [Istradefylline, reference compound], for which the affinity in test [1], expressed as Ki, was 610 nM.

On to `N#Cc1cc(-c2nc(N)nc3c2cnn3Cc2ccc(N)cc2F)ccn1` [11h, 4-(6-Amino-1-(4-amino-2-fluorobenzyl)-1H-pyrazolo[3,4-d]pyrimidin-4-yl)picolinonitrile], for which the Ki in test [1] was determined as 28000 nM; in test [2], 3190 nM.

For the compound `Cc1cc(Cn2ncc3c(-c4cc(C#N)ccn4)nc(N)nc32)ccc1N` [11k, 2-(6-Amino-1-(4-amino-3-methylbenzyl)-1H-pyrazolo[3,4-d]pyrimidin-4-yl)isonicotinonitrile], the Ki worked out at 510 nM in test [1] and 65 nM in test [2].

`N#Cc1cccc(-c2nc(N)nc3c2cnn3Cc2ccc(N)cc2)n1` [11b, 6-(6-Amino-1-(4-aminobenzyl)-1H-pyrazolo[3,4-d]pyrimidin-4-yl)picolinonitrile]: the Ki was found to be 650 nM in test [1] and 31 nM in test [2].

Compound `N#Cc1cccc(-c2nc(N)nc3c2cnn3Cc2ccc(N)cc2)c1F` [4b, 3-(6-Amino-1-(4-aminobenzyl)-1H-pyrazolo[3,4-d]pyrimidin-4-yl)-2-fluorobenzonitrile] returned a Ki in test [2] of 19.4 nM.

With `N#Cc1ccnc(-c2nc(N)nc3c2cnn3Cc2ccc(N)cc2)c1` [11a, 2-(6-Amino-1-(4-aminobenzyl)-1H-pyrazolo[3,4-d]pyrimidin-4-yl)isonicotinonitrile], the Ki in test [1] stood at 2470 nM; in test [2] it was 310 nM.

In the case of `Cc1cc(Cn2ncc3c(-c4cncc(C#N)c4)nc(N)nc32)ccc1N` [11m, 5-(6-Amino-1-(4-amino-3-methylbenzyl)-1H-pyrazolo[3,4-d]pyrimidin-4-yl)nicotinonitrile], the Ki stood at 21200 nM in test [1] and 2480 nM in test [2].

Consider `N#Cc1cccc(-c2nc(N)nc3c2cnn3Cc2ccc(N)cc2F)c1` [11i, 3-(6-Amino-1-(4-amino-2-fluorobenzyl)-1H-pyrazolo[3,4-d]pyrimidin-4-yl)benzonitrile], for which the Ki worked out at 160 nM in test [1] and 12.1 nM in test [2].

Take `N#Cc1ccnc(-c2nc(N)nc3c2cnn3Cc2ccc(N)cc2F)c1` [11e, 2-(6-Amino-1-(4-amino-2-fluorobenzyl)-1H-pyrazolo[3,4-d]pyrimidin-4-yl)isonicotinonitrile]: the figures for the Ki in test [1] and in test [2] were 710 nM and 120 nM, respectively.

Turning to `Cc1cc(Cn2ncc3c(-c4ccnc(C#N)c4)nc(N)nc32)ccc1N` [11n, 4-(6-Amino-1-(4-amino-3-methylbenzyl)-1H-pyrazolo[3,4-d]pyrimidin-4-yl)picolinonitrile], the Ki was 21300 nM in test [1] and 1150 nM in test [2].
